Results published in article PMC11945486, “TAS1R2/TAS1R3 Single-Nucleotide Polymorphisms Affect Sweet Taste Receptor Activation by Sweeteners: The SWEET Project” (Nutrients, 2025).

Biological target: T1, human TAS1R2-R838K (subunit alone) (Homo sapiens, UniProt Q8TE23, R838K)
T1 construct: expressed in transfected cells; host or cells: HEK293T stably expressing Gα16gust44
T1 sequence (Q8TE23 20-839 R838K): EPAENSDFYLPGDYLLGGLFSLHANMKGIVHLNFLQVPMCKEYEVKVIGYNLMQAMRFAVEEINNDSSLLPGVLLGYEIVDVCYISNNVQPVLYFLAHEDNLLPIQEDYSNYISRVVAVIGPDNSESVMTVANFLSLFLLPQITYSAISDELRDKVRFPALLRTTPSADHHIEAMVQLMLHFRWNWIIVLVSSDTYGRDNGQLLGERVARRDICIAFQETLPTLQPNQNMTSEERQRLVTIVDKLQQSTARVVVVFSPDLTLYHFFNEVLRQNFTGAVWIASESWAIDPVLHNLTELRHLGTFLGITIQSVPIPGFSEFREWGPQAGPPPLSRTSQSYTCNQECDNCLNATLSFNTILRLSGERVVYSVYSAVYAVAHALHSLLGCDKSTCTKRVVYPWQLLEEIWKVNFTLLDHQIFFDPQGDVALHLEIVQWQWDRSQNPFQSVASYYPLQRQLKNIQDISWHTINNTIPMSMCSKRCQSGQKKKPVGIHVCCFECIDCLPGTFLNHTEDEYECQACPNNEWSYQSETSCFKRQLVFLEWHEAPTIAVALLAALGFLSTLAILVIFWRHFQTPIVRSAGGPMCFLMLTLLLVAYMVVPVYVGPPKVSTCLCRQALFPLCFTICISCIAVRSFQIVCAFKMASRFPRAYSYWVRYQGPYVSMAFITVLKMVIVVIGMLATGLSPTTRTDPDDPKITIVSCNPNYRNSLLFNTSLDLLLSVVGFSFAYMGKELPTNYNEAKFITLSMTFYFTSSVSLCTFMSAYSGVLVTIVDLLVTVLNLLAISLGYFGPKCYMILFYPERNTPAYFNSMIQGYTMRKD
Assay: Calcium mobilisation assay, TAS1R2-R838K subunit alone
Assay type: cell-based
Excerpt: The coding sequences for TAS1R2 and TAS1R3 were commercially synthesised, and the human codon was optimised for expression in human cells. The coding sequences of human TAS1R2 and TAS1R3 were subcloned and inserted into the mammalian expression vectors pcDNA6/myc-HisA and pcDNA4/myc-HisA (Invitrogen; Thermo Fisher Scientific; Illkirch, France) between the EcoRI and NotI restriction sites, generating the plasmids pcDNA6-TAS1R2 and pcDNA4-TAS1R3, respectively. To increase protein expression in mammalian cells, an upstream start codon was used, which was a sequence called MAX, corresponding to the QBI SP163 element also described in pcDNA4-HisMax (Invitrogen; Thermo Fisher Scientific; Illkirch, France). To measure the expression level of the receptor by immunohistochemistry, we used the FLAG sequence ([…]) in the C-terminal position, which encodes the FLAG tag epitope. […]
The HEK293T cells were kindly provided by Jay P. Slack (Givaudan Flavors Corporation; Cincinnati, OH, USA). […] The fluorescence intensity was measured for 90 s (excitation 488 nm, emission 510 nm) in an automated fluorometric FlexStation®3 Multi-Mode microplate reader (Molecular Devices; San Jose, CA, USA). […] The Ca^2+ changes were expressed as fractional changes in fluorescent light intensity: ΔF/F = (F − F0)/F0, where F was the fluorescent light intensity at each point, and F0 was the value of emitted fluorescent light prior to stimulus application. To calculate dose–response relationships, the changes in fluorescence upon stimulus application were averaged, mock-subtracted and baseline-corrected. […] The half-maximal effective concentrations (EC50 values) and maximal signal amplitudes were calculated using SigmaPlot software (version 15.0) (Systat Software; San Jose, CA, USA).
For in vitro calcium mobilisation assay performed on hTAS1R2-SNPs, hTAS1R3-SNPs and mTAS1R3-I60T, 6 to 7 concentrations were tested for each sweet compound, plus buffer alone. All concentration–receptor combinations were measured in duplicate, and each experiment was repeated at least 4 times (8 wells/concentration). […]

- EC50: 92.4 ± 19.7 µM
- R1 = Variant EC50/WT EC50: 1.0
- Max ΔF/F0 (maximal signal amplitude): 0.35 ± 0.03
Compound: C=C(C)[C@@H]1CC=C(/C=N/O)CC1 [Perillartine, perillartine]
